# In patent US20060205677A1 (XenoPort, Inc., priority 2005, published 2006):
# Assays:
# [1] = test system: PC3 (Prostate) xenograft; assay: In vivo tumor growth inhibition, mouse xenograft, PC3; parameters: species or system nude athymic CD-1 mice; details: 80 mg/kg (2/week), IP
# Protocol: (§1) Tumor xenograft studies were performed using nude athymic CD-1 mice (Charles River Laboratories). Human cancer cells (5×10^6 PC3, 5×10^6 HT29, 10^7 Calu-6, and 5×10^6 ME180) were implanted in the hind flank of nude mice. Tumor growth was measured using calipers and tumor volume calculated using the formula: (width^2×(length/2)). Tumor volume was measured 3 days per week. Animal weight was measured 3 days per week to assess compound toxicity.
# (§2) Compounds were tested for in vivo tumor growth inhibition as follows. Animals bearing tumors 100-200 mg were sorted into groups (5-8 animals) with similar average tumor mass per group. Drug doses were administered by intraperitoneal (IP) injection (0.5 mL). Test compounds were dissolved in phosphate buffered saline (PBS) and concentration adjusted for animal weight. Actual drug concentrations in formulated doses were verified by quantitative nitrogen detection. Animals were dosed every 7 days for 21 days in most studies. In several studies, animals were dosed twice weekly (days 0, 4, 7, 10, 14, etc.). Tumor volume and animal weight were measured on days 0, 2, 4, 7, 9, 11, 14, 16, 18, 21, 23, 25, and 28. […] Tumor volume at the end of the study was calculated as a percentage of the tumor volume on day 0. […]
# [2] = test system: H69AR cells; assay: In vitro cytotoxicity (Alamar blue growth inhibition), H69AR; format: cell-based, human; details: 48 h
# Protocol: (§3) The effect of experimental compounds on cancer cell growth and viability was measured in a panel of human cancer cells grown in vitro. All cancer cell lines were obtained from the American […]. Cells were maintained in the following media: TUR, H69AR, Calu-6, ME180, and PC3 cells were grown in RPMI medium containing 4.5 g/L glucose, 10% FBS, 4 mM L-glutamine, and 1 mM sodium pyruvate); and HT29 cells were grown in DMEM with 4.5 g/L glucose, 10% FBS, and 6 mM L-glutamine. All cells were grown at 37° C. in 5% CO2 and passaged bi-weekly.
# (§4) For cytoxicity studies, cells were seeded into 96-well clear-bottom microtiter plates at the following densities: TUR (7,500 cells/well), HT29 (5,000 cells/well), H69AR (10,000 cells/well), Calu-6 (15,000 cells/well), and ME180 (2,500 cells/well). Cells were maintained at 37° C. with 5% CO2 for 24 hours prior to addition of various experimental compounds. Each condition was measured in triplicate. For compounds dissolved in DMSO, the final DMSO concentration in each well and in the non-drug treated control cells was constant and below 1% in all studies. The number of viable cells was determined after 24, 48, and 72 hours using Alamar blue fluorescence. Briefly, Alamar blue (10 mM) was added to each well for 4 hours, and the number of viable cells estimated by measuring the fluorescence of reduced Alamar blue (530 nm excitation, 590 nm emission). To correct for background fluorescence, cells were treated with 100% DMSO to eliminate all viable cells. The effect of drug on cell growth was determined by calculating the fraction of live cells treated with drug compared to untreated cells: (F1drug treated−F1DMSO killed)/(F1untreated−F1DMSO killed).
# [3] = test system: TUR cells; assay: In vitro cytotoxicity (Alamar blue growth inhibition), TUR; format: cell-based, human; details: 48 h
# Protocol: as §3, §4
# [4] = test system: PC3 cells; assay: In vitro cytotoxicity (Alamar blue growth inhibition), PC3; format: cell-based, human; details: PC3, 48 h
# Protocol: as §3, §4
# [5] = test system: HT29 cells; assay: In vitro cytotoxicity (Alamar blue growth inhibition), HT29; format: cell-based, human; details: HT29, 48 h
# Protocol: as §3, §4
# [6] = Determination of maximum tolerated dose (MTD); format: in vivo, nude mice
# Protocol: To determine the maximum tolerated doses for compound (54) relative to clinically used platinum anticancer agents, nude mice were injected with increasing drug doses (0.5 mL, intraperitoneally) on days 0, 7, and 14. […] The therapeutic index of a given drug is defined as the ratio of the maximum tolerated dose to the minimally effective dose.
# [7] = test system: HT29 cells; assay: Effect of sugar transport inhibitor (phloridzen) on in vitro cytotoxicity; format: cell-based, human; details: for GI50: 48 hours
# Protocol: as §3, §4
# [8] = test system: ME180 (Cervical) xenograft; assay: In vivo tumor growth inhibition, mouse xenograft, ME180; parameters: species or system nude athymic CD-1 mice; details: IP
# Protocol: as §1
# (§5) Compounds were tested for in vivo tumor growth inhibition as follows. Animals bearing tumors 100-200 mg were sorted into groups (5-8 animals) with similar average tumor mass per group. Drug doses were administered by intraperitoneal (IP) injection (0.5 mL). Test compounds were dissolved in phosphate buffered saline (PBS) and concentration adjusted for animal weight. Actual drug concentrations in formulated doses were verified by quantitative nitrogen detection. Animals were dosed every 7 days for 21 days in most studies. In several studies, animals were dosed twice weekly (days 0, 4, 7, 10, 14, etc.). Tumor volume and animal weight were measured on days 0, 2, 4, 7, 9, 11, 14, 16, 18, 21, 23, 25, and 28. At the end of the study, animal blood was removed for analysis of liver and kidney function (BUN, creatine, AST and ALT; analytical measurements performed by Quality Clinical Labs). Tumor volume at the end of the study was calculated as a percentage of the tumor volume on day 0. The percent tumor growth inhibition was obtained from the ratio of the percentage tumor volume increase in drug treated animals to the percentage tumor volume increase in saline treated animals.
# [9] = test system: Calu-6 cells; assay: In vitro cytotoxicity (Alamar blue growth inhibition), Calu-6; format: cell-based, human; details: Calu-6, 48 h
# Protocol: as §3, §4
# [10] = test system: several different tumor types; assay: In vivo tumor growth inhibition, overall statement; parameters: species or system nude athymic CD-1 mice; details: mouse xenografts, compared with cisplatin, oxaliplatin, carboplatin
# Protocol: as §1, §2
# [11] = test system: ME180 cells; assay: In vitro cytotoxicity (Alamar blue growth inhibition), ME180; format: cell-based, human; details: ME180, 48 h
# Protocol: as §3, §4
# [12] = test system: Calu-6 (Lung) xenograft; assay: In vivo tumor growth inhibition, mouse xenograft, Calu-6; parameters: species or system nude athymic CD-1 mice; details: IP
# Protocol: as §1, §5
# [13] = test system: HT29 (Colon) xenograft; assay: In vivo tumor growth inhibition, mouse xenograft, HT29; parameters: species or system nude athymic CD-1 mice; details: IP
# Protocol: as §1, §5
compound,measurement,setting,value
"O=C(CCCC1C(=O)[O][Pt]2([NH]C3CCCCC3[NH]2)[O]C1=O)NCC1OC(O)C(O)C(O)C1O [(54), [1R,2R-Cyclohexanediamine-N,N′][{3-(α,β-D-Galactopyranos-6-ylamido)propyl}propanedioato(2-)-O,O′]Platinum (II)]",Percent Tumor Growth Inhibition PC3 (Prostate),[1],82%
same,GI50,[2],77 µM
same,GI50,[3],9 µM
same,GI50,[4],85 µM
same,GI50,[5],238 µM
same,"Therapeutic index relative to cisplatin, carboplatin, oxaliplatin, in words",[6]; in words,dramatically improved therapeutic index
same,Therapeutic Index MTD/Min Eff,[6]; ratio of maximum tolerated dose to minimally effective dose,12.7
same,GI50,"[7]; HT29, 0 mM phloridzen, read-out: GI50 of Uptake in HT29 Cells, 0 mM Phoridzen",385 µM
same,GI50,"[7]; HT29, 0.2 mM phloridzen, read-out: GI50 of Uptake in HT29 Cells, 0.2 mM Phoridzen",574 µM
same,GI50,"[7]; HT29, 0.5 mM phloridzen, read-out: GI50 of Uptake in HT29 Cells, 0.5 mM Phoridzen",759 µM
same,GI50,"[7]; HT29, 1.0 mM phloridzen, read-out: GI50 of Uptake in HT29 Cells, 1.0 mM Phoridzen",> 1000 µM
same,Effect of increasing concentrations of phloridzen on cytotoxic effects,"[7]; HT29, 48 hours, in words",block the cytotoxic effects
same,Percent Tumor Growth Inhibition ME180 (Cervical),[8]; 50 mg/kg (2/week),24%
same,Percent Tumor Growth Inhibition ME180 (Cervical),[8]; 75 mg/kg (2/week),24%
same,Percent Tumor Growth Inhibition ME180 (Cervical),[8]; 100 mg/kg,18%
same,Percent Tumor Growth Inhibition ME180 (Cervical),[8]; 500 mg/kg,68%
same,GI50,[9],185 µM
same,"Inhibition of tumor growth in vivo, in words",[10],effective in inhibiting growth of several different tumor types in vivo
same,GI50,[11],15 µM
same,Percent Tumor Growth Inhibition Calu-6 (Lung),[12]; 50 mg/kg (2/week),73%
same,Percent Tumor Growth Inhibition Calu-6 (Lung),[12]; 100 mg/kg,42%
same,Percent Tumor Growth Inhibition Calu-6 (Lung),[12]; 500 mg/kg,81%
same,Percent Tumor Growth Inhibition HT29 (Colon),[13]; 75 mg/kg (2/week),74%
same,Percent Tumor Growth Inhibition HT29 (Colon),[13]; 100 mg/kg,63%
